# Measured values reported in patent US11243207B2, “Assessing and treating cancer” (Mayo Foundation for Medical Education and Research, priority 2018, dated 2022).
# Key:
# [1] = system: HLF cells; assay: Combination proliferation assay in HLF cells (Chou and Talalay); assay type: cell-based; details: in combination with SSI-4
# Protocol: (§2) Cell lines were maintained in DMEM media supplemented with sodium pyruvate, HEPES, non-essential amino acids, 3% FBS and antibiotics. Cells were plated at 30,000 cells per well in 12-well plate and treated for 4-5 days at the indicated doses with SSI4 and sorafenib diluted in DMSO at 1:1000. Cell number was determined by using a Coulter Particle Counter.
# [2] = biological target: T1, SCD1 (Mus musculus, UniProt P13516); assay: Inhibition of oleoyl CoA biosynthesis by mouse liver microsomes (13C18-stearoyl CoA conversion, LC/MS); assay type: biochemical
# T1 construct: Each assay (100 μL) contained 50 μg of microsomes; from tissue; host or cells: mouse liver microsomes
# T1 sequence (P13516 1-355): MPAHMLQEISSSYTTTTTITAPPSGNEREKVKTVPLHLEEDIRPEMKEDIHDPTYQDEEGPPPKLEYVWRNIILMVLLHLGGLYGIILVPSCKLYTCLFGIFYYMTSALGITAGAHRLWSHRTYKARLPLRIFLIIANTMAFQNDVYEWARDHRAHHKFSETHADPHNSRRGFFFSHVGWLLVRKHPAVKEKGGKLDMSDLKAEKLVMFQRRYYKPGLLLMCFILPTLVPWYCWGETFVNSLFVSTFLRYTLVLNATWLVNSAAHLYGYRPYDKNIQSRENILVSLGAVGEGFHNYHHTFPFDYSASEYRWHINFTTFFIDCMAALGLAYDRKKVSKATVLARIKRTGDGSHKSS
# Protocol: Pharmacokinetic assessment was performed for SSI-4 administered to fasted male C57BL/6 mice either intravenously (IV) or by oral gavage (PO) in DMSO:PEG400:water (10:70:20) as a clear solution at 5 mg/mL (IV dosing), and 1.3 or 10 mg/mL (respectively for the PO dosing). Serum analysis was performed by LC-MS-MS. PK calculation settings were obtained using the Phoenix WinNonlin 6.3 program, using either the Noncompartmental model 201 (IV bolus input) or Noncompartmental model 200 (extravascular input). Microsomes were isolated from murine liver using Microsome Isolation Kit (BioVision). Each assay (100 μL) contained 50 μg of microsomes, 1 μL of DMSO (for no drug controls) or DMSO-solubilized SCD1 inhibitor, 1 mM reduced NADH, 60 µM coenzyme A, 1 mM ATP, 1 mM DTT, and 5 mM MgCl2 in 100 mM sodium phosphate buffer (pH 7.4). […] To quantify biotransformation of 13C18-stearoyl CoA to 13C18-oleoyl CoA for drug treatments relative to vehicle controls, supernatants were evaluated using the LC/MS2 acyl CoA quantitation method of […] et al. and adapting selected reaction monitoring (SRM) for isotope-labeled acyl CoAs. […] SRM signal areas for isotope-labeled acyl CoAs were measured relative to the heptadecanoyl CoA I.S. using XCalibur software, and percent enzyme inhibition determined by comparing 13C18-oleoyl CoA quantities between treatment and DMSO control assays. […]
# [3] = Single dose pharmacokinetics in fasted male C57BL/6 mice (PO or IV); assay type: in vivo, mouse
# Protocol: Pharmacokinetic assessment was performed for SSI-4 administered to fasted male C57BL/6 mice either intravenously (IV) or by oral gavage (PO) in DMSO:PEG400:water (10:70:20) as a clear solution at 5 mg/mL (IV dosing), and 1.3 or 10 mg/mL (respectively for the PO dosing). Serum analysis was performed by LC-MS-MS. PK calculation settings were obtained using the Phoenix WinNonlin 6.3 program, using either the Noncompartmental model 201 (IV bolus input) or Noncompartmental model 200 (extravascular input). Microsomes were isolated from murine liver using Microsome Isolation Kit (BioVision). Each assay (100 μL) contained 50 μg of microsomes, 1 μL of DMSO (for no drug controls) or DMSO-solubilized SCD1 inhibitor, 1 mM reduced NADH, 60 µM coenzyme A, 1 mM ATP, 1 mM DTT, and 5 mM MgCl2 in 100 mM sodium phosphate buffer (pH 7.4). […] To quantify biotransformation of 13C18-stearoyl CoA to 13C18-oleoyl CoA for drug treatments relative to vehicle controls, supernatants were evaluated using the LC/MS2 acyl CoA quantitation method of Magnes et al. and adapting selected reaction monitoring (SRM) for isotope-labeled acyl CoAs. […] SRM signal areas for isotope-labeled acyl CoAs were measured relative to the heptadecanoyl CoA I.S. using XCalibur software, and percent enzyme inhibition determined by comparing 13C18-oleoyl CoA quantities between treatment and DMSO control assays. […]
# [4] = biological target: 468 kinases; assay: Full matrix kinome scan, binding to 468 kinases; parameters: species or system human
# Protocol: Kinome Scan was conducted by Lead Hunter Discovery Services
# [5] = Seven day oral toxicity test in Sprague Dawley rats; assay type: in vivo, rat
# Protocol: Sprague dawley rats (6-8 weeks old M/F) were orally gavaged with SS1-4 at the indicated dose daily, for a duration of seven days. For each dose levels 3 male and 3 females were placed on study. Rats were clinically observed and weighed daily. On day 8 rats were euthanatized and blood was collected by cardiac puncture. Blood chemistry was measured by STAT Veterinary laboratory.
# [6] = system: HCC cell lines; assay: Proliferation assay in HCC cell lines; assay type: cell-based
# Protocol: as §2
# [7] = system: Normal human hepatocytes (HH) cells; assay: Proliferation assay in normal human hepatocytes; assay type: cell-based; details: 1 μM
# [8] = system: SSI4 responsive HCC cells; assay: Lipid assay, unsaturated fatty acids in HCC cells; assay type: cell-based; details: 1 μM, 48 hour treatment
# Protocol: Cells were treated for 48 hours with 1 μM SSI4 and lipids from 8 million cells were extracted using the 1957 Folch Lipid Extraction method. Lipids were re-suspended in DMSO and analyzed using Cell Biolab's lipid quantitation assay kit. Borosilicate glass tubes and polypropylene tips and plates were used during the experiments. Samples were read at OD540 nm and were background corrected on a Spectramax M3 spectrophotometer.
# [9] = system: SSI-4 responsive HCC cells; assay: Soft agar colony formation assay; assay type: cell-based
# Protocol: Soft agar cultures were prepared by diluting 2× growth medium 1:1 in 1.5% Seaplaque GTG agarose with 1000 cells/plate in 6-well culture dishes. Colonies were stained with Giemsa after 3 weeks and colonies larger than 150 μm were counted using Image J software.
# [10] = system: cMyc, survivin, cyclin D1, cleaved PARP, BIP; assay: Western blot analysis of HCC cell lines; assay type: cell-based
# Protocol: Cells were collected via scraping and lysed in RIPA extraction buffer containing protease inhibitor cocktail and phosphatase inhibitor. Protein concentrations were measured by bicinchoninic acid (BCA) assay and 30 μg were loaded on 4-12% Bis-Tris/MES gels and then transferred to 0.2 μm Immobilon-P membranes. The membranes were hybridized overnight at 4° C. with the following antibodies: SCD1, PARP, survivin, c-Myc, BIP and β-actin. Secondary species-specific horseradish peroxidase-labeled antibodies were from Jackson Immunoresearch. Detection was performed using Supersignal chemiluminescence kit.
# [11] = system: PAX148 HCC PDTX; assay: PAX148 HCC PDTX mouse model; assay type: in vivo; details: daily SSI-4 20-50 mg/kg oral, high LDHA model
# Protocol: (§1) Tissues were cut into 4×4×4 mm cubes and surgically implanted under anesthesia with 100 μl Matrigel into 4-6 week old athymic nude female mice. Tumors were measured 1 to 2 times per week using calipers and volumes calculated by […]*(L×W×H). Once tumors reached ˜100 mm3, either placebo or SSI-4 treatment was administered at 180, or 600 mg/kg in custom AIN76 animal chow by Research Diets, Inc. Based upon food consumption, the amount of SSI4 ingested was 20 mg/kg and 50 mg/kg, respectively. For the combination study, mice were administered either 10 mg/kg SSI4, 30 mg/kg sorafenib or both in Nutra-gel diet.
# [12] = system: LIV58 HCC PDTX; assay: LIV58 HCC PDTX mouse model; assay type: in vivo
# Protocol: as §1
# FFPE tissues were cut into 5 μm sections, deparaffinized, hydrated, antigen retrieved for 25 minutes at pH 6.0 and blocked for 5 minutes with Dako diluent. Immunostaining was done for 1 hour with either lamin A+C, SCD1, c-Myc, survivin, LDHA, ki67, and BIP primary antibodies. For detection, the Envision Dual Labeled Polymer kit (Dako) was used for 30 minutes for anti-species secondary antibodies and stained with DAB chromagen for 5 minutes. Then, lightly counterstained with Gill I hematoxylin for 30 seconds before dehydration and mounting. Images were obtained at 20× using an Aperio AT2 Scanscope. IHC scoring was done using an algorithm in the Imagescope software based upon signal intensity of weak (1+), moderate (2+) or strong staining (3+) with criteria of at least 20% positivity. H score was calculated based upon signal intensity (0-3) using the formula: [(1+%×1)+(2+%×2)+(3+%×3)].
# [13] = system: HLE HCC mouse model; assay: HLE HCC mouse model, combination study; assay type: in vivo; details: 10 mg/kg SSI4, 30 mg/kg sorafenib or both
# Protocol: as §1
# [14] = system: human (CX-004T2 and HUCCT1) cholangiocarcinoma (CCA) cell lines; assay: Proliferation of human CCA cell lines; assay type: cell-based; details: 0.1-1 μM, 5 day exposure
# [15] = system: mouse (M1-1a and M6-1b) cholangiocarcinoma (CCA) cell lines; assay: Proliferation of mouse CCA cell lines; assay type: cell-based; details: 0.1-1 μM, 5 day exposure
# [16] = system: CX-003 CCA PDTX; assay: CX-003 CCA PDTX mouse model (c-Myc negative); assay type: in vivo; details: 50 mg/kg oral daily
# Protocol: as §1
structure (smiles),measurement,setting,value
CNC(=O)c1cc(Oc2ccc(NC(=O)Nc3ccc(Cl)c(C(F)(F)F)c3)c(F)c2)ccn1 [Regorafenib],synergy by Chou and Talalay method,[1],exhibited synergy
"CNC(=O)c1ccnc(NC(=O)N2CCC(Oc3ccccc3Cl)CC2)c1 [SSI-4, 2-{[4-(2-Chlorophenoxy)piperidine-1-carbonyl]amino}-N-methylpyridine-4-carboxamide]",IC50,[2],1.9 nM
same,half-life,"[3]; male, C57BL/6, mouse, serum, following a single oral dose",3 to 4 h
same,oral bioavailability,"[3]; single dose, mice",excellent oral bioavailability
same,kinases found to bind (of 468),[4]; SSI-4 at 10 nM,none
same,kinases found to bind (of 468),"[4]; SSI-4 at 100 nM, kinase bound is CDKL2",1
same,blood chemistries,[5]; day 8,in normal range
same,toxicity,"[5]; male or female rats, daily oral for seven days",Little to no toxicity
same,weight loss,"[5]; males, 300 mg/kg",6%
same,proliferation response in HCC cells silenced for cMyc with shRNA,"[6]; 1 uM SSI-4, c-Myc 1657 shRNA",blunted response
same,IC50,[6]; other (non-responsive) HCC cell lines,≥ 10000 nM
same,growth inhibition,[7],not growth inhibited
same,levels of unsaturated fatty acids,[8],decreased
same,colony formation in soft agar,[9],decreased colony formation
same,ER stress (BIP),[10],inducing
same,"Wnt regulated genes (cMyc, survivin and cyclin D1) protein",[10],down-regulated
same,apoptosis (cleaved PARP),[10],inducing apoptosis
same,antitumor response (tumor volume),[11],highly sensitive
same,"BIP, biomarker of ER stress (IHC)",[12]; LIV58 tumors,upregulated
same,"Ki-67, survivin and cMyc (IHC)",[12]; LIV58 tumors,attenuated
same,antitumor response (tumor volume),"[12]; daily SSI-4 20-50 mg/kg oral, low LDHA model",~30%
same,in vivo tumor response over time,[13],escape over time on therapy
same,cell growth,[14],growth inhibition
same,cell growth,[15],growth inhibition
same,antitumor response (tumor volume),[16],no response
"CNC(=O)c1cc(Oc2ccc(NC(=O)Nc3ccc(Cl)c(C(F)(F)F)c3)cc2)ccn1 [sorafenib, reference compound]",IC50,[6]; all cell lines tested,1700 to 6400 nM
same,in vivo tumor response over time,[13],escape over time on therapy
